The target of one test is T1, P-type calcium channels (Rattus norvegicus, UniProt P54282).
T1 construct: Male rats (Sprague-Dawley, 200-220 g) were killed by decapitation and neocortices were isolated by blunt dissection; from tissue; host or cells: Sprague-Dawley rat neocortex, crude synaptosomes
In words: Inhibition of depolarization induced Ca++ flux (CaFl), 45Ca++ influx into rat neocortical synaptosomes. It is filed as biochemical. The conditions noted are these: for IC50: 30 mM KCl stimulated 45Ca flux, rat neocortical synaptosomes; for inhibition at 10 µM / inhibition at 30 µM: read-out: CaFl, percent inhibition. The text has this:
A large influx of calcium from extracellular compartments into neurons is observed after opening of voltage-dependent calcium channels. The opening of calcium channels may be induced by a K^+ -stimulated depolarization of neuronal membranes. A crude synaptosomal preparation contains small vesicles surrounded by neuronal membranes, and it is feasible to study the opening of voltage-operated calcium channels in such a preparation. In the test described below, the influx of ^45 Ca^++ into rat synaptosomes is studied under depolarized conditions. The effect of the test compounds on the depolarization induced calcium update can thus be studied. The calcium influx measured in this assay is believed to represent the P-type calcium channels.
Male rats (Sprague-Dawley, 200-220 g) were killed by decapitation and neocortices were isolated by blunt dissection. White matter was dissected away and the gray matter was placed in cold sucrose buffer (composition (mM): sucrose 320, TRIS base 5.0, EDTA 0.1; adjusted to pH 7.3 with HCl). The tissue was homogenized using 5 strokes at 500 rpm followed by 4 strokes at 800 rpm. The homogenate was centrifuged at 1075 g for 10 minutes. The pellet was discarded and the supernatant was centrifuged at 15800 g for 10 minutes at 4° C., and the supernatant was discarded. The final pellet was resuspended in incubation buffer and kept on ice.
Fifty-microliter aliquots of neocortical synaptosome suspension were preincubated for 5 minutes at 25° C. in 400 μL of incubation buffer containing drug or control solvent. The synaptosomes were then exposed to a tracer quantity of ^45 CaCl2 (1 μCi/mL) in combination with either 3 mM KCl (basal calcium flux or 30 mM KCl (stimulated calcium flux). The calcium flux was terminated by filtration over glass-fiber filters (GFB) using a Skatron 12-well harvester; filters were washed with a pressurized, continuous flow of 3 mL wash buffer (composition (mM): choline chloride 140, EGTA 3, HEPES 22; adjusted to pH 7.3 with TRIS base). Radioactivity of the filters was measured by scintillation counting. Basal calcium flux was subtracted from stimulated calcium flux in both control- and drug-treated conditions, and data were expressed as percent inhibition of the adjusted control response.

Another test deals with sodium channels. The note with it: rat neocortical membranes, 5 nM [3H]batrachotoxinin, Cheng-Prusoff; read-out: BTX Binding.

T1 sequence (P54282 whole entry): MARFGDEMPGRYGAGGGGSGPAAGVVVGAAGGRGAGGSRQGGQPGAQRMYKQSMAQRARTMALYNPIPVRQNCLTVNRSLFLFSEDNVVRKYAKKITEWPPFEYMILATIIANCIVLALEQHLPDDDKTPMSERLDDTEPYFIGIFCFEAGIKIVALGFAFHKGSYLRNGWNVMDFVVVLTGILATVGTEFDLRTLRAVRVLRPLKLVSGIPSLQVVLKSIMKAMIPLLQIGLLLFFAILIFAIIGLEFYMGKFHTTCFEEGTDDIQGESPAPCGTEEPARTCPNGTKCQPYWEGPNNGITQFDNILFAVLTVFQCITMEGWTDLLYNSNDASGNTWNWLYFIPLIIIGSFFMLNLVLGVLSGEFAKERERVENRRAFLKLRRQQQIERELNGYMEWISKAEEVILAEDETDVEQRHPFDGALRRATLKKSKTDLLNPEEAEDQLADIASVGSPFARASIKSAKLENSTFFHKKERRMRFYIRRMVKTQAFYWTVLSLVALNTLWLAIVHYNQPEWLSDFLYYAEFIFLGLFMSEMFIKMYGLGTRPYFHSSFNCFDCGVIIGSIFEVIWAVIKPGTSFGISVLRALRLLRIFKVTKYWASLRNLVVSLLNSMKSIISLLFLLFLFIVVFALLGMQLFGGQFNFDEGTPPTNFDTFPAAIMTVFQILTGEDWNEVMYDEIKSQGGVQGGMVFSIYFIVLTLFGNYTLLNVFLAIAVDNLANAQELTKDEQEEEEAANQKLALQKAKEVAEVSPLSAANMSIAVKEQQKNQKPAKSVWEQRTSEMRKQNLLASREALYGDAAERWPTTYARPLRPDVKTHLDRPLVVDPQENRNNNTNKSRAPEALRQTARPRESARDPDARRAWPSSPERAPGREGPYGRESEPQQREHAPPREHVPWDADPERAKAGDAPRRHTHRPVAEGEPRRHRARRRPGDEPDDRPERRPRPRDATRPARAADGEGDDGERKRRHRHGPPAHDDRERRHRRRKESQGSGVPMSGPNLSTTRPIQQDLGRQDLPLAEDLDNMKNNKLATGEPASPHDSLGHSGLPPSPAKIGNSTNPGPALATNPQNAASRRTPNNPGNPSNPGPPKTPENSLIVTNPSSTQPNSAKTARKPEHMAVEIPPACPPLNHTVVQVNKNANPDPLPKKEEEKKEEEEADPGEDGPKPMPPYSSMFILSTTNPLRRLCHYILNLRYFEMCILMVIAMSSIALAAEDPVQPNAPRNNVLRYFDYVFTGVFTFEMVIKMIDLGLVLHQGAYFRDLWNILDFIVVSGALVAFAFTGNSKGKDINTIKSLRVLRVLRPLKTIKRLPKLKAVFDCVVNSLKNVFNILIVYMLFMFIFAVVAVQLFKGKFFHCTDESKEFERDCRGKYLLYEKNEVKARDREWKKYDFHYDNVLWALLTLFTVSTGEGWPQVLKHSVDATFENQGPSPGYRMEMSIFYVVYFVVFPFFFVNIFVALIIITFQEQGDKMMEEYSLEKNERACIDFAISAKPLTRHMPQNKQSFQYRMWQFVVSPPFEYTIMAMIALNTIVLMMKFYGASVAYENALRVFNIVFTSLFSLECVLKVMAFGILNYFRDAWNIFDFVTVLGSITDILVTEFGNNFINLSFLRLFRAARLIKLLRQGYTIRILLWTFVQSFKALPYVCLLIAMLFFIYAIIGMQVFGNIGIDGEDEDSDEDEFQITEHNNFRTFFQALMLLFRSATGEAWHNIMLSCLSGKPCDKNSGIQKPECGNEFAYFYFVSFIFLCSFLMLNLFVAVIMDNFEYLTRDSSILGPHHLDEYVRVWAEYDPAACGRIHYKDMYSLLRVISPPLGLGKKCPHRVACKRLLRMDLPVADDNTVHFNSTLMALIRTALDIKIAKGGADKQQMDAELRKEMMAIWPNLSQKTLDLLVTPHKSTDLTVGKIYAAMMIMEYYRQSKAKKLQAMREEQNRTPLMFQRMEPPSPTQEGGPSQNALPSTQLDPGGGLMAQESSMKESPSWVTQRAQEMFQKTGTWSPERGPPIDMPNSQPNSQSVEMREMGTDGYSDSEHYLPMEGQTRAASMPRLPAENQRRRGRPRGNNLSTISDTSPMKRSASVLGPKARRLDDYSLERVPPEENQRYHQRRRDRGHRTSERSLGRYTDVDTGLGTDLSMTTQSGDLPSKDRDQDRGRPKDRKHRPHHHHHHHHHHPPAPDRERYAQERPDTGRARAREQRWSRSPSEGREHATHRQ

On to `COc1ccc(CCN(Cc2cccc3ccccc23)CC(O)COc2cccc(C)c2)cc1OC` (centres unmarked) [Example 9, 1-{[2-(3,4-Dimethoxyphenyl)-ethyl]-naphthalen-1-ylmethylamino}-3-m-tolyloxy-propan-2-ol], for which, on P-type calcium channels, the IC50 stood at 9.9 µM.
As for `COc1ccc(CCN(Cc2ccccc2)CC(O)COc2cccc(C(F)(F)F)c2)cc1OC` (centres unmarked) [Example 20, 1-{Benzyl-[2-(3,4-dimethoxyphenyl)-ethyl]-amino}-3-(3-trifluoromethylphenoxy)-propan-2-ol], on P-type calcium channels, the IC50 was determined as 4.7 µM. For the same compound, the Ki on sodium channels is 0.62 µM.
The matching figures for `COc1ccc(CCN(Cc2ccccc2)CC(O)CSc2cccc(C(F)(F)F)c2)cc1OC` (centres unmarked) [Example 21, 1-{Benzyl-[2-(3,4-dimethoxyphenyl)-ethyl]-amino}-3-(3-trifluoromethylphenylsulfanyl)-propan-2-ol]: 4.3 µM and 0.44 µM.
Consider `COc1ccc(CCN(CCc2ccccc2)CC(O)COc2cccc(C)c2)cc1OC` (centres unmarked) [Example 22, 1-{[2-(3,4-Dimethoxyphenyl)ethyl]-phenethylamino}-3-m-tolyloxy-propan-2-ol], for which the IC50 on P-type calcium channels is 1.4 µM.
Still for that read-out and setting: with `COc1cccc(CN(CCc2ccc(OC)c(OC)c2)CC(O)COc2cccc(C)c2)c1` (centres unmarked) [Example 10, 1-[[2-(3,4-Dimethoxyphenyl)-ethyl]-(3-methoxybenzyl)amino]-3-m-tolyloxy-propan-2-ol] the figure was 5.1 µM.
As to `COc1ccc(CCN(Cc2c[nH]c3ccccc23)CC(O)COc2cccc(C)c2)cc1OC` (centres unmarked) [Example 30, 1-[[2-(3,4-Dimethoxyphenyl)ethyl]-(1H-indol-3-ylmethyl)-amino]-3-m-tolyloxypropan-2-ol], at P-type calcium channels, the IC50 came to 4.5 µM. For the same compound, the Ki at sodium channels came to 0.015 µM.
Take `COc1ccc(CCN(C)CC(O)COc2cccc3ccccc23)cc1OC` (centres unmarked) [Example 28, 1-{[2-(3,4-Dimethoxyphenyl)-ethyl]-methylamino}-3-(naphthalen-1-yloxy)-propan-2-ol]: the concentration for half-maximal inhibition (IC50) at P-type calcium channels was found to be 6.8 µM.
`COc1ccc(CCN(CC(O)COc2cccc(C)c2)CC2CCCCC2)cc1OC` (centres unmarked) [Example 23, 1-{Cyclohexylmethyl-[2-(3,4-dimethoxyphenyl)ethyl]-amino}-3-m-tolyloxy-propan-2-ol]: the IC50 on P-type calcium channels stood at 1.9 µM.
Take `COc1ccc(CN(CCc2ccc(OC)c(OC)c2)CC(O)COc2cccc(C)c2)cc1` (centres unmarked) [Example 8, 1-[[2-(3,4-Dimethoxyphenyl)-ethyl]-(4-methoxybenzyl)amino]-3-m-tolyloxy-propan-2-ol]: the IC50 on P-type calcium channels was found to be 5.4 µM. The Ki on sodium channels stood at 0.152 µM.
For the compound `COc1ccc(CCN(Cc2cccc([N+](=O)[O-])c2)CC(O)COc2cccc(C)c2)cc1OC` (centres unmarked) [Example 6, 1-[[2-(3,4-Dimethoxyphenyl)-ethyl]-(3-nitrobenzyl)amino]-3-m-tolyloxy-propan-2-ol], on P-type calcium channels, the inhibition at 10 µM is 57% and the inhibition at 30 µM came out at 62%.
As for `COc1ccc(CCN(Cc2ccccc2)CC(O)COc2ccc(C3CCCCC3)cc2C)cc1OC` (centres unmarked) [Example 15, 1-{Benzyl-[2-(3,4-dimethoxyphenyl)-ethyl]-amino}-3-(4-cyclohexyl-2-methylphenoxy)-propan-2-ol], the 50% inhibitory concentration (IC50) at P-type calcium channels worked out at 9.2 µM.
For the compound `COc1ccc(CCN(Cc2ccc(Cl)cc2)CC(O)COc2cccc(C)c2)cc1OC` (centres unmarked) [Example 3, 1-{(4-Chlorobenzyl)-[2-(3,4-dimethoxyphenyl)-ethyl]-amino}-3-m-tolyloxy-propan-2-ol], on P-type calcium channels, the inhibition at 10 µM came to 44% and the inhibition at 30 µM is 77%.
In the same order, the values of `COc1ccc(CCN(C)CC(O)COc2ccc3c(c2)CCC3)cc1OC` (centres unmarked) [Example 27] are 43% and 69%.
In the case of `COc1ccc(CCN(Cc2cccc(Cl)c2)CC(O)COc2cccc(C)c2)cc1OC` (centres unmarked) [Example 7, 1-{(3-Chlorobenzyl)-[2-(3,4-dimethoxyphenyl)ethyl]-amino}-3-m-tolyloxy-propan-2-ol], on P-type calcium channels, the inhibition at 10 µM is 47%.
For the compound `COc1ccc(CCN(Cc2ccccc2Cl)CC(O)COc2cccc(C)c2)cc1OC` (centres unmarked) [Example 17, 1-{(2-Chlorobenzyl)-[2-(3,4-dimethoxyphenyl)ethyl]-amino}-3-m-tolyloxy-propan-2-ol], on P-type calcium channels, the inhibition at 10 µM stood at 46% and the inhibition at 30 µM is 55%.
For `COc1ccc(CCN(Cc2ccccc2)CC(O)COc2cccc3ccccc23)cc1OC` (centres unmarked) [Example 18, 1-{Benzyl-[2-(3,4-dimethoxyphenyl)-ethyl]-amino}-3-(naphthalen-1-yloxy)-propan-2-ol], at P-type calcium channels, the IC50 is 8.1 µM.
Still for that read-out and setting: with `COc1ccc(CCN(Cc2ccccc2F)CC(O)COc2cccc(C)c2)cc1OC` (centres unmarked) [Example 13, 1-[[2-(3,4-Dimethoxyphenyl)-ethyl]-(2-fluorobenzyl)amino]-3-m-tolyloxy-propan-2-ol] the figure was 1.8 µM; with `COc1ccc(CCN(Cc2ccccc2[N+](=O)[O-])CC(O)COc2cccc(C)c2)cc1OC` (centres unmarked) [Example 11, 1-[[2-(3,4-Dimethoxyphenyl)-ethyl]-(2-nitrobenzyl)amino]-3-m-tolyloxy-propan-2-ol], 3.1 µM; with `COc1ccc(CCN(C)CC(O)CSc2cccc3ccccc23)cc1OC` (centres unmarked) [Example 29, 1-{[2-(3,4-Dimethoxyphenyl)-ethyl]-methylamino}-3-(naphthalen-1-ylsulfanyl)-propan-2-ol], 3.6 µM.
The same measure, in the same setting: under `COc1ccccc1CN(CCc1ccc(OC)c(OC)c1)CC(O)COc1cccc(C)c1` (centres unmarked) [Example 12, 1-[[2-(3,4-Dimethoxyphenyl)-ethyl]-(2-methoxybenzyl)amino]-3-m-tolyloxy-propan-2-ol] stands 4.1 µM.
As to `COc1ccc(CCN(Cc2ccccc2)CC(O)COc2ccc(OCc3ccccc3)cc2)cc1OC` (centres unmarked) [Example 14, 1-{Benzyl-[2-(3,4-dimethoxyphenyl)-ethyl]-amino}-3-(4-benzyloxyphenoxy)-propan-2-ol], the IC50 on P-type calcium channels came to 5 µM. Besides, the Ki on sodium channels stood at 0.016 µM.
Turning to `COc1ccc(CCN(Cc2ccc(F)cc2)CC(O)COc2cccc(C)c2)cc1OC` (centres unmarked) [Example 1, 1-[[2-(3,4-Dimethoxyphenyl)-ethyl]-(4-fluorobenzyl)amino]-3-m-tolyloxy-propan-2-ol], the concentration for half-maximal inhibition (IC50) at P-type calcium channels was determined as 5.2 µM.
With `COc1ccc(CCN(C)CC(O)COc2cccc(C)c2)cc1OC` (centres unmarked) [Example 25, 1-{[2-(3,4-Dimethoxyphenyl)-ethyl]-methylamino}-3-m-tolyloxy-propan-2-ol], the inhibition at 30 µM at P-type calcium channels worked out at 31%.
Regarding `COc1ccc(CCN(Cc2cccc(F)c2)CC(O)COc2cccc(C)c2)cc1OC` (centres unmarked) [Example 4, 1-[[2-(3,4-Dimethoxyphenyl)-ethyl]-(3-fluorobenzyl)amino]-3-m-tolyloxy-propan-2-ol], at P-type calcium channels, the IC50 was found to be 6.6 µM.
On the same count and under the same terms, under `COc1ccc(CCN(C)CC(O)COc2ccc(OCc3ccccc3)cc2)cc1OC` (centres unmarked) [Example 26, 1-(4-Benzyloxyphenoxy)-3-{[2-(3,4-dimethoxyphenyl)ethyl]-methylamino}-propan-2-ol] stands 3.3 µM.
Take `COc1ccc(CCN(Cc2ccc([N+](=O)[O-])cc2)CC(O)COc2cccc(C)c2)cc1OC` (centres unmarked) [Example 5, 1-[[2-(3,4-Dimethoxyphenyl)-ethyl]-(4-nitrobenzyl)amino]-3-m-tolyloxy-propan-2-ol]: at P-type calcium channels, the inhibition at 10 µM turned out to be 59% and the inhibition at 30 µM came out at 62%.
In the case of `COc1ccc(CCN(Cc2ccccc2)CC(O)COc2cccc(C)c2)cc1OC` (centres unmarked) [Example 2, 1-{Benzyl-[2-(3,4-dimethoxyphenyl)-ethyl]amino}-3-m-tolyloxy-propan-2-ol], on P-type calcium channels, the IC50 is 9.2 µM. In addition, the Ki on sodium channels worked out at 0.52 µM.
In the same order, the values of `COc1ccc(CCN(Cc2ccccc2)CC(O)CSc2cccc3ccccc23)cc1OC` (centres unmarked) [Example 19, 1-{Benzyl-[2-(3,4-dimethoxyphenyl)-ethyl]-amino}-3-(naphthalen-1-ylsulfanyl)-propan-2-ol] are 2.5 µM and 0.2 µM.
As to `COc1ccc(CCN(Cc2ccccc2)CC(O)COc2ccc3c(c2)CCC3)cc1OC` (centres unmarked) [Example 16, 1-{Benzyl-[2-(3,4-dimethoxyphenyl)-ethyl]-amino}-3-(indan-5-yloxy)-propan-2-ol], the IC50 on P-type calcium channels stood at 4.8 µM.

What is called IC50 is the concentration needed to halve the response being measured. For orientation: inhibition means how much of the control response was suppressed.

(Values after patent publication US5482964A, “Substituted phenoxyhydroxypropyl amines as central nervous system agents” (Warner-Lambert Company, priority 1994, dated 1996).)
